The assay relates to MDA231 cells expressing CD/UPRT in mouse lungs. Put plainly: Flura-seq of lung micrometastases, reads aligned to hybrid human-mouse genome. The class given is in vivo. How it is done: FIG. 3 a-g. Flura-tagging of mRNA in vivo. FIG. 3a—Schematic diagram of lung colonization xenograft assay used for evaluation of Flura-tagging/Flura-seq. Athymic mice were injected through the tail vein with 50,000 MDA231 cells expressing CD/UPRT and GFP-luciferase. Upon the development of detectable bioluminescent lung metastases (4 weeks), mice were treated with doxycycline to induce CD/UPRT expression and injected with 5-FC. Lungs were harvested, and Flura-tagged mRNAs were immunopurified. FIG. 3b—Comparison of signal-to-noise ratio of Flura-tagging and TU-tagging in vivo. Mice were injected with either 5-FC or TU, the Flura-tagged or TU-tagged mRNAs were purified 12 h post injection, and the relative fold enrichment of representative human housekeeping genes relative to representative murine housekeeping genes (mHPRT1, mLDH1, mPGK1 and mGAPDH), normalized to their corresponding unpurified inputs, were measured by RT-PCR (n=5, ±S.E.). FIG. 3c—Quantification of the number of human cells in the mouse lungs used for Flura-tagging. Half of the mouse lungs used for Flura-tagging in FIG. 3b was dissociated into single cells, and the number of RFP+ cells was quantified using flow cytometry. The total number of MDA231 cells per lung was estimated based on an assumption of 1.5×10^8 cells per mouse lung (20) (n=5). […] RNA reads were aligned to a hybrid genome containing the human and mouse genomes. […]

This is an account of results in patent publication US20200032249A1, “LABELING, ISOLATION, & ANALYSIS OF RNA FROM RARE CELL POPULATIONS” (priority 2017, published 2020).

`Nc1nc(=O)[nH]cc1F` [5-FC, 5-fluorocytosine]: the “aligned reads mapped to human genome” value is “approximately 53%” (mice treated for 4 h) and 74% (mice treated for 12 h).
